Test results from patent US20240293367A1, “METHODS OF TREATING DISORDERS WITH A […]” (Cybin IRL Limited, priority 2023, published 2024).

Conditions: female, rat, in vivo, 40 mg/kg

In the case of `[2H]C([2H])([2H])N(C([2H])([2H])[2H])C([2H])([2H])C([2H])([2H])c1c[nH]c2cccc(O)c12` [psilocin-d10, 3-(2-(bis(methyl-d3)amino)ethyl-1,1,2,2-d4)-1H-indol-4-ol], the AUC(0-t) is reported as 3630 ng·h/mL and the Cmax is reported as 343 ng/mL.
